Results published in patent publication US11161856B2 (H. Lundbeck A/S, priority 2017, dated 2021).

Columns and labels:
MGLL = biological target: T1, MGLL (Mus musculus, UniProt O35678); test: In vitro competitive activity-based protein profiling, mouse brain proteome (MGLL); type: biochemical; conditions: concentration not given (μM)
T1 construct: Brain; from tissue; host or cells: mouse brain proteome
T1 sequence (O35678 1-303): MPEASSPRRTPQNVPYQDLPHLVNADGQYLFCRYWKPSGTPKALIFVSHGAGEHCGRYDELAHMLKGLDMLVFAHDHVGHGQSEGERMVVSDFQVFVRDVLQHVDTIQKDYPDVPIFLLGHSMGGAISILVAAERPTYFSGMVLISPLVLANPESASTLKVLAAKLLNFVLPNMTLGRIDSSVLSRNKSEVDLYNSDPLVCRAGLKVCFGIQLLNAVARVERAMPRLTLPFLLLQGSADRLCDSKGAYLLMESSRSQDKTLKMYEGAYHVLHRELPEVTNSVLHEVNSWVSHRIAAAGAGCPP

ABHD6 = biological target: T2, ABHD6 (Mus musculus, UniProt Q8R2Y0); test: In vitro competitive activity-based protein profiling, mouse brain proteome (ABHD6); type: biochemical; conditions: mouse brain proteome; concentration not given (μM)
T2 construct: Brain; from tissue; host or cells: mouse brain proteome
T2 sequence (Q8R2Y0 1-336): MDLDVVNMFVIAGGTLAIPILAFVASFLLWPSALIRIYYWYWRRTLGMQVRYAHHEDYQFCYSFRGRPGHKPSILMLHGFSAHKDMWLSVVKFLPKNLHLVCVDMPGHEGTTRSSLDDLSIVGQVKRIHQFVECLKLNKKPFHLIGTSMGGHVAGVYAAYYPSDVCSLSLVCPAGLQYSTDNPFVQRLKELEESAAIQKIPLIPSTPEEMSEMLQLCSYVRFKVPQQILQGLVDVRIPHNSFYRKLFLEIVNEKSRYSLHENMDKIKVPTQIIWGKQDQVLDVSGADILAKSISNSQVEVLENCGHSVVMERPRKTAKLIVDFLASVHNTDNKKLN
Description: [The source words this procedure for another target and reports this target under the same test.] In Vitro Competitive Activity-Based Protein Profiling.
Proteomes (human prefrontal cortex or cell membrane fractions) (50 μL, 1.0 mg/mL total protein concentration) were preincubated with varying concentrations of inhibitors at 37° C. After 30 min, FP-Rh or HT-01 (1.0 μL, 50 μM in DMSO) was added and the mixture was incubated for another 30 min at room temperature. Reactions were quenched with SDS loading buffer (15 μL-4×) and run on SDS-PAGE.

Row | SMILES | % Inh MGLL Brain (Mouse, μM) (MGLL) | % Inh ABHD6 Brain (Mouse, μM) (ABHD6)
1 | O=C(OC(C(F)(F)F)C(F)(F)F)N1CCC2(CCN(Cc3ccc(Cl)cc3N3CCOCC3)CC2)C1 [Example 181, 1,1,1,3,3,3-Hexafluoropropan-2-yl 8-(4-chloro-2-morpholinobenzyl)-2,8-diazaspiro[4.5]decane-2-carboxylate] | ### (### is ≥75%) | # (# is ≤25%)
2 | CCN1CCC2(CCN(c3cc(C(F)(F)F)ccc3CN3CCN(C(=O)OC(C(F)(F)F)C(F)(F)F)CC3)CC2)C1 [Example 183, 1,1,1,3,3,3-Hexafluoropropan-2-yl 4-(2-(2-ethyl-2,8-diazaspiro[4.5]decan-8-yl)-4-(trifluoromethyl)benzyl) piperazine-1-carboxylate] | ### (### is ≥75%) | # (# is ≤25%)
3 | O=C(OC(C(F)(F)F)C(F)(F)F)N1CCC2(CCN(Cc3ccc(C(F)(F)F)cc3N3CCCCC3)CC2)C1 [Example 187, 1,1,1,3,3,3-Hexafluoropropan-2-yl 8-(2-(piperidin-1-yl)-4-(trifluoromethyl)benzyl)-2,8-diazaspiro[4.5]decane-2-carboxylate] | ### (### is ≥75%) | # (# is ≤25%)
4 | O=C(OC(C(F)(F)F)C(F)(F)F)N1CCC2(CCN(Cc3ccc(C(F)(F)F)cc3N3CC4COCC4C3)CC2)C1 (stereo not shown) [Example 188, 1,1,1,3,3,3-Hexafluoropropan-2-yl 8-(2-(tetrahydro-1H-furo[3,4-c]pyrrol-5(3H)-yl)-4-(trifluoromethyl)benzyl)-2,8-diazaspiro[4.5]decane-2-carboxylate] | ### (### is ≥75%) | # (# is ≤25%)
5 | CC(=O)N1CCC2(CCN(c3cc(C(F)(F)F)ccc3CN3CCN(C(=O)OC(C(F)(F)F)C(F)(F)F)CC3)CC2)C1 [Example 189, 1,1,1,3,3,3-Hexafluoropropan-2-yl 4-(2-(2-acetyl-2,8-diazaspiro[4.5]decan-8-yl)-4-(trifliioromethyl)benzyl) piperazine-1-carboxylate] | ### (### is ≥75%) | # (# is ≤25%)
6 | O=C(OC(C(F)(F)F)C(F)(F)F)N1CCC2(CCN(Cc3ccc(C(F)(F)F)cc3N3CC4CCC(C3)O4)CC2)C1 [Example 190, 1,1,1,3,3,3-Hexafluoropropan-2-yl 8-(2-(8-oxa-3-azabicyclo[3.2.1]octan-3-yl)-4-(trifluoromethyl)benzyl)-2,8-diazaspiro[4.5]decane-2-carboxylate] | ### (### is ≥75%) | # (# is ≤25%)
7 | O=C(OC(C(F)(F)F)C(F)(F)F)N1CCC2(CCN(Cc3ccc(Cl)cc3N3CCCCC3)CC2)C1 [Example 191, 1,1,1,3,3,3-Hexafluoropropan-2-yl 8-(4-chloro-2-(piperidin-1-yl)benzyl)-2,8-diazaspiro[4.5]decane-2-carboxylate] | ### (### is ≥75%) | # (# is ≤25%)
8 | O=C(OC(C(F)(F)F)C(F)(F)F)N1CCC2(CCN(Cc3ccc(C(F)(F)F)cc3N3CCC(F)CC3)CC2)C1 [Example 192, 1,1,1,3,3,3-Hexafluoropropan-2-yl 8-(2-(4-fluoropiperidin-1-yl)-4-(trifluoromethyl)benzyl)-2,8-diazaspiro[4.5]decane-2-carboxylate] | ### (### is ≥75%) | # (# is ≤25%)
9 | CC(=O)N1CCCc2cccc(CN3CCC4(CC3)CCN(C(=O)OC(C(F)(F)F)C(F)(F)F)C4)c21 [Example 193, 1,1,1,3,3,3-Hexafluoropropan-2-yl 8-((1-acetyl-1,2,3,4-tetrahydroquinolin-8-yl)methyl)-2,8-diazaspiro[4.5]decane-2-carboxylate] | ## (## is between 25 and 75%) | # (# is ≤25%)
10 | O=C(O)C1CCN(c2cc(Cl)ccc2CN2CCC3(CC2)CCN(C(=O)OC(C(F)(F)F)C(F)(F)F)C3)CC1 [Example 194, l-(5-Chloro-2-((2-(((1.1,1,3,3,3-hexafluoropropan-2-yl)oxy)carbonyl)-2,8-diazaspiro[4.5]decan-8-yl)methyl)phenyI)piperidine-4-carboxylic acid] | ### (### is ≥75%) | # (# is ≤25%)
11 | O=C(O)C1CCN(c2cc(C(F)(F)F)ccc2CN2CCC3(CC2)CCN(C(=O)OC(C(F)(F)F)C(F)(F)F)C3)CC1 [Example 195, l-(2-((2-(((l,1,1,3,3,3-Hexafluoropropan-2-yl)oxy)carbonyl)-2,8-diazaspino[4.5]decan-8-yl)melhyl)-5-(trifluoromethyl)phenyl)piperidine-4-carboxylic acid] | ### (### is ≥75%) | # (# is ≤25%)

Next, values leading:

Row | % Inh MGLL Brain (Mouse, μM) (MGLL) | % Inh ABHD6 Brain (Mouse, μM) (ABHD6) | SMILES
12 | ### (### is ≥75%) | # (# is ≤25%) | CN1CC2(CCN(c3cc(C(F)(F)F)ccc3CN3CCN(C(=O)OC(C(F)(F)F)C(F)(F)F)CC3)C2)C1 [Example 179, 1,1,1,3,3,3-Hexafluoropropan-2-yl 4-(2-(2-methyl-2,6-diazaspiro[3,4]octan-6-yl)-4-(trifluoromethyl)benzyl) piperazine-1-carboxylate]
13 | ### (### is ≥75%) | # (# is ≤25%) | CC(=O)N1CC2(CCN(c3cc(C(F)(F)F)ccc3CN3CCN(C(=O)OC(C(F)(F)F)C(F)(F)F)CC3)C2)C1 [Example 180, 1,1,1,3,3,3-Hexafluoropropan-2-yl 4-(2-(2-acetyl-2,6-diazaspiro[3,4]octan-6-yl)-4-(trifluoromethyl)benzyl)pipera zine-1-carboxylate]
14 | ### (### is ≥75%) | # (# is ≤25%) | CN1CCC2(CCN(c3cc(C(F)(F)F)ccc3CN3CCN(C(=O)OC(C(F)(F)F)C(F)(F)F)CC3)CC2)C1 [Example 182, 1,1,1,3,3,3-Hexafluoropropan-2-yl 4-(2-(2-methyl-2,8-diazaspiro[4.5]decan-8-yl)-4-(trifluoromethyl)benzyl) piperazine-1-carboxylate]
15 | ### (### is ≥75%) | # (# is ≤25%) | CCN1CC2(CCN(c3cc(C(F)(F)F)ccc3CN3CCN(C(=O)OC(C(F)(F)F)C(F)(F)F)CC3)C2)C1 [Example 184, 1,1,1,3,3,3-Hexafluoropropan-2-yl 4-(2-(2-ethyl-2,6-diazaspiro[3,4]octan-6-yl)-4-(trifluoromethyl)benzyl) piperazine-1-carboxylate]
16 | ### (### is ≥75%) | # (# is ≤25%) | CS(=O)(=O)N1CCC2(CCN(c3cc(C(F)(F)F)ccc3CN3CCN(C(=O)OC(C(F)(F)F)C(F)(F)F)CC3)CC2)C1 [Example 185, 1,1,1,3,3,3-Hexafluoropropan-2-yl 4-(2-(2-(methylsulfonyl)-2,8-diazaspiro[4.5]decan-8-yl)-4-(trifluoromethyl)benzyl) piperazine-1-carboxylate]
17 | ### (### is ≥75%) | # (# is ≤25%) | CS(=O)(=O)N1CC2(CCN(c3cc(C(F)(F)F)ccc3CN3CCN(C(=O)OC(C(F)(F)F)C(F)(F)F)CC3)C2)C1 [Example 186, 1,1,1,3,3,3-Hexafluoropropan-2-yl 4-(2-(2-(methylsulfonyl)-2,6-diazaspiro[3,4]octan-6-yl)-4-(trifluoromethyl)benzyl) piperazine-1-carboxylate]
